Measured values reported in ChEMBL document CHEMBL2016494, “Ligand-based design of a potent and selective inhibitor of cytochrome P450 2C19” (J Med Chem, 2012).

Columns and labels:
Cytochrome P450 1A2 = molecular target: T1, Cytochrome P450 1A2 (Homo sapiens, UniProt P05177); test: Inhibition of CYP1A2 in human liver microsomes using phenacetin preincubated for 5 mins by LC-MS/MS analysis
T1 sequence (P05177 whole entry): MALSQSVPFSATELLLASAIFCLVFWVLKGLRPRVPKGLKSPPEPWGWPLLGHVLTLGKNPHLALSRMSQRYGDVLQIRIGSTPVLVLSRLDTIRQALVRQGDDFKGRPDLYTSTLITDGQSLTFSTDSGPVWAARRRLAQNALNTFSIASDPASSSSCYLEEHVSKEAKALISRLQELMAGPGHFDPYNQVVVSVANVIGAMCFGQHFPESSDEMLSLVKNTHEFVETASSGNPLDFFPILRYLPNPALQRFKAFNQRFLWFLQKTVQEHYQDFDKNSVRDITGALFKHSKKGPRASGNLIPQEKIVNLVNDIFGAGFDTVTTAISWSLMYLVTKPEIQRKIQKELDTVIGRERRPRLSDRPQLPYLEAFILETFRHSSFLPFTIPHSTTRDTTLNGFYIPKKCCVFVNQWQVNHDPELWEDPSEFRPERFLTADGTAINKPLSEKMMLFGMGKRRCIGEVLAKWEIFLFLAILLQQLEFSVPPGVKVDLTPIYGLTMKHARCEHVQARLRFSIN

Cytochrome P450 2C8 = molecular target: T2, Cytochrome P450 2C8 (Homo sapiens, UniProt P10632); test: Inhibition of CYP2C8 in human liver microsomes using paclitaxel as substrate preincubated for 5 mins by LC-MS/MS analysis
T2 sequence (P10632 whole entry): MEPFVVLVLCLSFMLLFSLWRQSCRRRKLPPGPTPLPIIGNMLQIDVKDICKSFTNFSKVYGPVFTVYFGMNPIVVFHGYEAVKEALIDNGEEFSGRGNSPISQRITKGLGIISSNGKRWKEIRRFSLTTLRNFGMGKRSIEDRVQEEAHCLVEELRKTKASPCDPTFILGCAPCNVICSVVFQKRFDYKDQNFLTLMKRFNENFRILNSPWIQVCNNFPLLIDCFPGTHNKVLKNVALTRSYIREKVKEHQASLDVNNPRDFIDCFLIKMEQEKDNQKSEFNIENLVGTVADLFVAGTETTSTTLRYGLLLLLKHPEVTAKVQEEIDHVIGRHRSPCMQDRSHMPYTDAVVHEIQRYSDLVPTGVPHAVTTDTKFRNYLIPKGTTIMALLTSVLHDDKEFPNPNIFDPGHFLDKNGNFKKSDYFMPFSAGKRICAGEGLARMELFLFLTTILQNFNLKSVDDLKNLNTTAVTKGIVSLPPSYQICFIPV

Cytochrome P450 2D6 = Cytochrome P450 2D6 (Homo sapiens, UniProt P10635); test: Inhibition of CYP2D6 in human liver microsomes using dextromethorphan as substrate preincubated for 5 mins by LC-MS/MS analysis
[1] = Half life in human liver microsomes by LC-MS/MS analysis
[2] = Apparent intrinsic clearance in human liver microsomes by LC-MS/MS analysis
Cytochrome P450 2B6 = molecular target: T3, Cytochrome P450 2B6 (Homo sapiens, UniProt P20813); test: Inhibition of CYP2B6 in human liver microsomes using bupropion as substrate preincubated for 5 mins by LC-MS/MS analysis
T3 sequence (P20813 whole entry): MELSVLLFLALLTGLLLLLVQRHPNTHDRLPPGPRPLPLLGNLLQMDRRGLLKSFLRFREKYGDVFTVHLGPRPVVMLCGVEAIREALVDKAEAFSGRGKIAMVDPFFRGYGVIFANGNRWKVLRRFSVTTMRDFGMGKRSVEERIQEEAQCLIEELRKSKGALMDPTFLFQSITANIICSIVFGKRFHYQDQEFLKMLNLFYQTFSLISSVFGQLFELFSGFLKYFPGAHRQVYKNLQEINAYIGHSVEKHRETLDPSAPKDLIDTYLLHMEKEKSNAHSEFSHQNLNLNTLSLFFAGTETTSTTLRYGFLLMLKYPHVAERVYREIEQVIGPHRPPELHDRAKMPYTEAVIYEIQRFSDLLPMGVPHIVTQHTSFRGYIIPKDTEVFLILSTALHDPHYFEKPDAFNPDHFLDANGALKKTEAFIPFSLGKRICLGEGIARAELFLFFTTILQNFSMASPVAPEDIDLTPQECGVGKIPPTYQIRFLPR

Cytochrome P450 2E1 = Cytochrome P450 2E1 (Homo sapiens, UniProt P05181); test: Inhibition of CYP2E1 in human liver microsomes using chlorzoxazone as substrate preincubated for 5 mins by LC-MS/MS analysis
Sequence of Cytochrome P450 2E1 (P05181 whole entry): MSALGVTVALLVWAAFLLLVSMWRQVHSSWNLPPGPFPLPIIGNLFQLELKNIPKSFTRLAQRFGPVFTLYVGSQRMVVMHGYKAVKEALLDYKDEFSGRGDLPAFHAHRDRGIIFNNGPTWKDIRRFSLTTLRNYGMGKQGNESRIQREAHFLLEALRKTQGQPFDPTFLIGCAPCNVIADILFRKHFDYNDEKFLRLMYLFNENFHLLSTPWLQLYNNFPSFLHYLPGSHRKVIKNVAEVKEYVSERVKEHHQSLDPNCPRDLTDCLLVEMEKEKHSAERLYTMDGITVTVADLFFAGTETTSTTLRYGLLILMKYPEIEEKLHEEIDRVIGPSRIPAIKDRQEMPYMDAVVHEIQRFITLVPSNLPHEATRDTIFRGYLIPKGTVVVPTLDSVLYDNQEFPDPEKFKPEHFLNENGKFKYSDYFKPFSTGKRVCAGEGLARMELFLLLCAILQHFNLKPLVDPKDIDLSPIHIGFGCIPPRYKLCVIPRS

Sequence of Cytochrome P450 2D6 (P10635 whole entry): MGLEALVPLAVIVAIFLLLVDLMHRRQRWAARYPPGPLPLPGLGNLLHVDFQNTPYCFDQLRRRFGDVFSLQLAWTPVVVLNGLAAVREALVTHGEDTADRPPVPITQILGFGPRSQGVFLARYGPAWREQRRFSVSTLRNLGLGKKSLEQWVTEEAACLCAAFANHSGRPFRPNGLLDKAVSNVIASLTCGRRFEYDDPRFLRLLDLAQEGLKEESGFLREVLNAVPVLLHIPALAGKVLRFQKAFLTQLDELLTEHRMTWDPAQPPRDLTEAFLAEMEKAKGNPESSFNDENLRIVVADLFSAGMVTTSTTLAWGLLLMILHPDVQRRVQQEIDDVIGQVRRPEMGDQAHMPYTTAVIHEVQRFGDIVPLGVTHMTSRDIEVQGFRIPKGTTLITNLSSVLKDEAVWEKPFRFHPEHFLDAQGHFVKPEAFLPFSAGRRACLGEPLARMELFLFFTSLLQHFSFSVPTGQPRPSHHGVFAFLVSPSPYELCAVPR

IC50 (Cytochrome P450 1A2) [µM]	IC50 (Cytochrome P450 2C8) [µM]	IC50 (Cytochrome P450 2D6) [µM]	half-life ([1]; microsomes) [h]	microsomal CLint ([2]; microsomes) [µL/min/mg]	IC50 (Cytochrome P450 2B6) [µM]	half-life ([1]; liver microsomes) [h]	microsomal CLint ([2]; liver microsomes) [µL/min/mg]	IC50 (Cytochrome P450 2E1) [µM]	SMILES
0.93	3.12	1.94	0.16	724					CCCSc1nc2ccc(OC)cc2[nH]1
					28.8	2	< 57.8		COc1ccc2[nH]c(SCCCC(=O)O)nc2c1
	> 50		2	< 57.8	> 50			> 50	COc1ccc2[nH]c(SCc3ccccc3)nc2c1
						0.134	860		COc1ccc2nc(SCc3ccc(C(=O)O)cc3)[nH]c2c1
